Reference: patent publication US7022882B2, “NMDA receptor channel blocker with neuroprotective activity” (priority 2000, dated 2006)
Where “and” joins values, the source holds several entries; their conditions need not be identical. Equal entries are not always repeated. Entries after “also recorded” stand apart in the source; their conditions may differ. Where two headings read alike, the source gives them in different places.

Key:
[1] = target: T1, NMDA receptors (NR1/NR2A) (Homo sapiens, UniProt Q05586+Q12879); conditions: literature values; cited from earlier work
T1 sequence (Q12879 23-1464, other chains not shown): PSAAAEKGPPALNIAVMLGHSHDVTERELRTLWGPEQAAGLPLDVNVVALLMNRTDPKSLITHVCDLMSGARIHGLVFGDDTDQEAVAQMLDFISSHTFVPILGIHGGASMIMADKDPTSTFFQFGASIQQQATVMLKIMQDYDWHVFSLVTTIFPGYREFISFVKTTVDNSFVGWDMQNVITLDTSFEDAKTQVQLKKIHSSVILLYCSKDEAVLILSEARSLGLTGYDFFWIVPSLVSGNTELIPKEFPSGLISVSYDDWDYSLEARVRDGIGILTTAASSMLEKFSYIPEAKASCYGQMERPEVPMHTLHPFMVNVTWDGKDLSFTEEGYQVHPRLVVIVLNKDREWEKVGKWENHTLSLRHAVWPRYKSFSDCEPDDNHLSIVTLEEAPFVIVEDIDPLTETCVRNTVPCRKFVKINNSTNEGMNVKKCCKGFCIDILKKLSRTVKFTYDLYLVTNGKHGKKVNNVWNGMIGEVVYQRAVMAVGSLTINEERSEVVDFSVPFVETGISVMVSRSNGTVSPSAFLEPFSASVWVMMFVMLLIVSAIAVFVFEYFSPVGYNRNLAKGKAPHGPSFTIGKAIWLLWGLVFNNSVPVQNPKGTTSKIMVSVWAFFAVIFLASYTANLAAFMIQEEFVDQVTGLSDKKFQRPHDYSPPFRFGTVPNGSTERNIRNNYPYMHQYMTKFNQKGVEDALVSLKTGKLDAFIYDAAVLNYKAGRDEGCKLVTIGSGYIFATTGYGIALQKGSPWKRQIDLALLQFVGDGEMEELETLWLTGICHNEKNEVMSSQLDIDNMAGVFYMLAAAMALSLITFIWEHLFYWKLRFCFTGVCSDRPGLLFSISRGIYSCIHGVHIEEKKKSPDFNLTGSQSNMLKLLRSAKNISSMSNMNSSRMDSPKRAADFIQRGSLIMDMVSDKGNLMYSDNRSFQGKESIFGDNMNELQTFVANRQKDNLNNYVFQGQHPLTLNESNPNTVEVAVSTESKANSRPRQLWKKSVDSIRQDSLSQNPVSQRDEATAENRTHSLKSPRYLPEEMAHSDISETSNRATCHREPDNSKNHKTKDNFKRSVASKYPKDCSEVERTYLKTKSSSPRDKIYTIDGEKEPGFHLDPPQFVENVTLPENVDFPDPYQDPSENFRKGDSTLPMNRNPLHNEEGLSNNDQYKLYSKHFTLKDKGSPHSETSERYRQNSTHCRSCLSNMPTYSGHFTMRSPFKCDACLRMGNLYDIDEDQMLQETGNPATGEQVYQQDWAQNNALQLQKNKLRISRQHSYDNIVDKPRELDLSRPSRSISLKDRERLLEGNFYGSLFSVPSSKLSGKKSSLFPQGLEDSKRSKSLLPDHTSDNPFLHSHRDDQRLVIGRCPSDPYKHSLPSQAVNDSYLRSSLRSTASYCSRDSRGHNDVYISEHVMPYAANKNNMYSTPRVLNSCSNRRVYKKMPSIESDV

[2] = system: cultured rat hippocampal neurons; experiment: Excitotoxic assay in hippocampal cultures, NMDA challenge, trypan blue exclusion; format: cell-based; conditions: 200 μM NMDA and 20 μM glycine for 20 min; for protection from NMDA receptor-mediated cell death: 10 μM, cell death by NMDA alone = 100%
Protocol: (§1) Mixed hippocampal neuron/glia primary cultures were employed to assess the neuroprotective activities of the identified lead against NMDA receptor-mediated excitotoxic cell death. Primary culture of rat hippocampal neurons were prepared as previously described (Ferrer-Montiel A. V., et al., Nat. Biotechnol., 16(3):286–91, 1998; Schinder A. F., et al.; J. Neurosci., 16(19):6125–33, 1996). In brief, hippocampi from E17–E19 rat embryos were first taken out and incubated at 4° C. in a saline (BSS) containing (mM): 137 NaCl, 3.5 KCl, 0.4 KH2PO4, 0.33 Na2HPO4.7H2O, 5 TES, and 10 glucose, pH 7.4. Hippocampi were then incubated in 0.25% trypsin (1×) solution from Hyclone at 37° C. for 15 min. Tissues were then washed and resuspended in minimal essential medium (Earle's salt) supplemented with 10% heat-inactivated horse serum (Hyclone), 10% fetal bovine serum (Hyclone), 1 mM […], 22 mM glucose, 20U/ml penicillin and 20 ug/ml streptomycin. Digested hippocampi were eventually dissociated by pipetting through a Pasteur pipette. Cells were plated at a density of 5×10^4 cells/cm^2.
Neurons cultured 14–17 days were used for the excitotoxic assays. Cultured medium was first removed and rinsed with BSS supplemented with 1 mM CaCl2, and 20 μM glycine. Neurons were challenged with 200 μM NMDA in the absence and presence of […] for 20 min at room temperature. The insults were terminated by removing the BSS containing NMDA. To reduce the excitotoxic effect due to the residual NMDA, the culture medium was supplemented with 20 μM MK-801. Cell cultures were returned to the incubator (37° C., 5% CO2). Cell death was assessed 20–24 hours after the challenge with trypan blue (0.04%) exclusion assays. Fraction of dead cells in cultures treated with control buffer (8±3%, n=2000) was subtracted as background.
NMDA insult alone caused significant cell death of 45±6% (n=2000). Neuroprotective activities as described in the Detailed Description of the Invention were expressed as percentage of net cell death in the absence and presence of 10 μM of the known NMDA receptor blockers and the identified compound. Cell death elicited by NMDA alone was considered as 100%. The assays were repeated in 4 separated occasions with different culture preparations.

[3] = system: cultured hippocampal neurons; experiment: Kainate induced neuronal cell death in hippocampal cultures; format: cell-based, rat; conditions: 20 μM CNQX, 10 μM MK-801, 10 μM memantine or 10 μM NBTA
Protocol: FIG. 7. NBTA protects cultured hippocampal neurons from NMDA receptor-mediated excitotoxic cell death. Trypan blue exclusion assays of (A) control neurons and neurons exposed to 200 μM NMDA in the absence (B) or presence of 10 μM memantine (C); and in the presence of 10 μM NBTA (D). (E) Normalized cell death in the absence and presence of the lead. (F) Neuronal death induced by kainate in the absence or presence of 20 μM CNQX, 10 μM MK-801, 10 μM memantine or 10 μM NBTA. Data are mean±s.e., n=2000.
To evaluate the specificity of the neuroprotective effect of NBTA<its activity against kainate induced neuronal cell death was assessed.
as §1

[4] = target: T2, non-NMDA glutamate receptor GluR1 (Homo sapiens, UniProt P42261); experiment: Two-electrode voltage-clamp block of GluR1 expressed in Xenopus oocytes; format: cell-based
T2 construct: expressed in transfected cells
T2 sequence (P42261 19-906): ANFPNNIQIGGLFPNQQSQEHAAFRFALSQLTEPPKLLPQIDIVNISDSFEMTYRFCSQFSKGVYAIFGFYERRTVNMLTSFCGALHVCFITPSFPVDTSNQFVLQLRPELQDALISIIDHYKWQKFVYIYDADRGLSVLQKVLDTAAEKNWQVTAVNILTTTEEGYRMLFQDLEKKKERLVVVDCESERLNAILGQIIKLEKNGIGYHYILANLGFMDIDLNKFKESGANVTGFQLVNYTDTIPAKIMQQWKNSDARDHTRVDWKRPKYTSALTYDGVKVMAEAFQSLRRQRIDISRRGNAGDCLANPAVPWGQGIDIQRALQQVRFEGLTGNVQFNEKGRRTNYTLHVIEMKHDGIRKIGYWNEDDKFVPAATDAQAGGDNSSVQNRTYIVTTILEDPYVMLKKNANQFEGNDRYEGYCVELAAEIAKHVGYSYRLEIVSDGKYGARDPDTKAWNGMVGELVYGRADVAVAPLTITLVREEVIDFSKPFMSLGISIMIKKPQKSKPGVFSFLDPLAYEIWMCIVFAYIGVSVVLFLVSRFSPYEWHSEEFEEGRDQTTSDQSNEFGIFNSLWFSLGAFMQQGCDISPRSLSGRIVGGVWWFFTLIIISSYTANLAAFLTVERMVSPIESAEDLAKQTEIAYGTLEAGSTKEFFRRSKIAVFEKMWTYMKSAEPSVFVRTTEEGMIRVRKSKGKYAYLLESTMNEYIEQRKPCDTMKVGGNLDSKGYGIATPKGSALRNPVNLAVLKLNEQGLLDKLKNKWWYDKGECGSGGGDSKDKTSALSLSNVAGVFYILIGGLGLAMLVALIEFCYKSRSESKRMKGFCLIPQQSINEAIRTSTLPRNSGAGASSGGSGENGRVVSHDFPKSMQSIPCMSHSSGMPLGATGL
Text: Recombinant NMDA receptor subunits, NR1 (Planells-Cases R, et al., Proc. Natl. Acad. Sci. USA, 90(11):5057–61, 1993) and NR2A (Le Bourdelles B, et al., J. Neurochem., 62(6):2091–8, 1994) was used for screening the dipeptidomimetic combinatorial library. cDNAs of NR1 and NR2A were linearized with NOT1. cRNAs encoding NR1 and NR2A were synthesized from the linearized cDNAs templates according to manufacturer specifications (Ambion). NR1 mutant (N616Q) was used to examine the site of action of the identified lead. The NR1A mutants were linearized with NOT1 and use of T7 for sense. cDNA of human glutamate receptor/GluR1 (Sun W., et al., Proc. Natl. Acad. Sci. USA, 89:1443–1447, 1992) was linearized with Hind III and the use of T3 promoter for the synthesis of its […]. cDNAs were quantified by spectroscopy and the quality were assessed by gel electrophoresis. […]
(§2) On days two to six following injection of cRNAs, whole oocyte currents were recorded with standard two-electrode voltage-clamp. […] The blocking activities of the library were assessed at 10 μM (assuming the molecular weight is ˜500). […] Blocking activity of the mixture is expressed as fraction of response blocked by the mixture. […]

[5] = target: NMDA receptor, N616Q (NR1 mutant) with N614G (NR2 mutant) (Homo sapiens, UniProt Q05586+Q12879, N614G/N616Q); experiment: Block of NMDA receptor with coexpressed N616Q (NR1 mutant) and N614G (NR2 mutant) in oocytes; format: cell-based; conditions: versus N616Q alone
Protocol: (§3) In contrast, mutations at N614G, N615G and S616G in the M2 segment had no effect on NBTA binding.
(§4) Oocytes of stage V and VI were surgically removed from the ovaries of […] anesthetized with 0.4% ethyl 3-amino-benzoate methanesulfonic acid-Clusters of oocytes were incubated with 2 mg/ml collagenase (Life Technologies, Gaithersburg, Md.) for 1 hour 20 min in Ca^2+-free solution comprised of (mM) 82.5 NaCl, 2.5 KCl, 1 MgCl2, 5 HEPES, pH 7.4 with vigorous agitation to remove the follicular cell layer. Oocytes were then washed extensively with the Ca^2+-free solution to remove the collagenase. Oocytes were eventually incubated in Barth's solution consisted of (in mM): 96 NaCl, 2 mM KCl, 1.8 CaCl2, 1 MgCl2, 5 HEPES supplemented with 100U/ml penicillin and 100 ug/ml streptomycin, pH 7.4 at 17° C. Oocytes were injected with 5–15 ng of cRNA encoding NR1 or its mutant premixed with three-fold amount of cRNA encoding NR2A.
as §2

[6] = target: T1, NMDA receptors (NR1/NR2A); experiment: Two-electrode voltage-clamp block of recombinant NMDA receptors expressed in Xenopus oocytes; format: cell-based
Protocol: Oocytes of stage V and VI were surgically removed from the ovaries of Xenopus oocytes anesthetized with 0.4% ethyl 3-amino-benzoate methanesulfonic acid-Clusters of oocytes were incubated with 2 mg/ml collagenase (Life Technologies, Gaithersburg, Md.) for 1 hour 20 min in Ca^2+-free solution comprised of (mM) 82.5 NaCl, 2.5 KCl, 1 MgCl2, 5 HEPES, pH 7.4 with vigorous agitation to remove the follicular cell layer. Oocytes were then washed extensively with the Ca^2+-free solution to remove the collagenase. Oocytes were eventually incubated in Barth's solution consisted of (in mM): 96 NaCl, 2 mM KCl, 1.8 CaCl2, 1 MgCl2, 5 HEPES supplemented with 100U/ml penicillin and 100 ug/ml streptomycin, pH 7.4 at 17° C. Oocytes were injected with 5–15 ng of cRNA encoding NR1 or its mutant premixed with three-fold amount of cRNA encoding NR2A.
On days two to six following injection of cRNAs, whole oocyte currents were recorded with standard two-electrode voltage-clamp. All electrophysiological studies, unless otherwise stated, were performed in Ba^2+/flufenamic-Ringer's solution (in mM: 10 HEPES pH7.5, 115 NaCl, 2.8 KCl, 2.0 BaCl2, 0.1 flufenamic, 0.1 niflumic acid) at ambient temperature as previously described (Ostresh J. M., et al., J. Org. Chem., 63:8622–8623, 1998; Nefzi A., et al., Tetrahedron, 55:335–344, 1999). Both current and voltage electrodes were filled with 3M KCl and have a tested resistance of 0.5–1 MOhm. The blocking activities of the library were assessed at 10 μM (assuming the molecular weight is ˜500). […] Inward currents were elicited from a holding potential of −80 mV except where indicated. […] Blocking activity of the mixture is expressed as fraction of response blocked by the mixture. Dose-response curves were fitted to the Hill equation:
[formula] where y is the ratio of current in the presence and presence of blocker, [x] is the blocker concentration, and IC50 and nH represent the concentration blocks 50% of response and Hill coefficient, respectively. Current-voltage relationships were measured first in the absence and then in the presence of a given concentration of lead at a specified membrane holding potential, and the ratio of these currents was plotted as a function of the holding potential. Analysis of the voltage dependent block current was performed according to the model proposed by Woodhull (Woodhull A. M., J. Gen. Physiol., 61:687–708, 1973). Data were fitted with the equation according to Zarei and Dani (Zarei M. M. and Dani J. A., J. Gen. Physiol., 1103(2):231–48, 1994):
[formula] where Ib and Ic are currents recorded during the blockade and control, respectively; [B] is the concentration of the blocker; Kd is the dissociation constant of the blocker at 0 mV; δ is the fraction of the membrane field sensed by the blocker as it binds to its site; V is the command voltage; R is the gas constant; T is the absolute temperature; F is the Faraday's number; z is the valence of the blocker.

[7] = target: NMDA receptor, NR2A tryptophan 606 to leucine (Homo sapiens, UniProt Q05586+Q12879, W606L); experiment: Block of NMDA receptor with NR2A tryptophan 606 to leucine substitution in oocytes; format: cell-based; conditions: versus wild type
Protocol: as §3, §4, §2

NMDA receptor, N615G = NMDA receptor, N615G (Homo sapiens, UniProt Q05586+Q12879, N615G); experiment: Block of NMDA receptor with N615G mutation in oocytes; format: cell-based; conditions: versus wild type
Protocol: as §3, §4, §2

[8] = target: NMDA receptor, NR1 mutant (N616Q) (Homo sapiens, UniProt Q05586+Q12879, N616Q); experiment: Block of NMDA receptor with NR1 mutant N616Q in oocytes; format: cell-based; conditions: versus wild type
[9] = target: NMDA receptor, N614G (NR2 mutant) (Homo sapiens, UniProt Q05586+Q12879, N614G); experiment: Block of NMDA receptor with N614G mutation in oocytes; format: cell-based; conditions: versus wild type
Protocol: as §3, §4, §2

NMDA receptor, NR1 N616R = NMDA receptor, NR1 N616R (Homo sapiens, UniProt Q05586+Q12879, N616R); experiment: Block of NMDA receptor with NR1 N-site mutant N616R in oocytes; format: cell-based; conditions: versus wild type
NMDA receptor, S616G = NMDA receptor, S616G (Homo sapiens, UniProt Q05586+Q12879, S616G); experiment: Block of NMDA receptor with S616G mutation in oocytes; format: cell-based; conditions: versus wild type
NMDA receptor, S616G, sequence (Q12879 23-1464 S616G, other chains not shown): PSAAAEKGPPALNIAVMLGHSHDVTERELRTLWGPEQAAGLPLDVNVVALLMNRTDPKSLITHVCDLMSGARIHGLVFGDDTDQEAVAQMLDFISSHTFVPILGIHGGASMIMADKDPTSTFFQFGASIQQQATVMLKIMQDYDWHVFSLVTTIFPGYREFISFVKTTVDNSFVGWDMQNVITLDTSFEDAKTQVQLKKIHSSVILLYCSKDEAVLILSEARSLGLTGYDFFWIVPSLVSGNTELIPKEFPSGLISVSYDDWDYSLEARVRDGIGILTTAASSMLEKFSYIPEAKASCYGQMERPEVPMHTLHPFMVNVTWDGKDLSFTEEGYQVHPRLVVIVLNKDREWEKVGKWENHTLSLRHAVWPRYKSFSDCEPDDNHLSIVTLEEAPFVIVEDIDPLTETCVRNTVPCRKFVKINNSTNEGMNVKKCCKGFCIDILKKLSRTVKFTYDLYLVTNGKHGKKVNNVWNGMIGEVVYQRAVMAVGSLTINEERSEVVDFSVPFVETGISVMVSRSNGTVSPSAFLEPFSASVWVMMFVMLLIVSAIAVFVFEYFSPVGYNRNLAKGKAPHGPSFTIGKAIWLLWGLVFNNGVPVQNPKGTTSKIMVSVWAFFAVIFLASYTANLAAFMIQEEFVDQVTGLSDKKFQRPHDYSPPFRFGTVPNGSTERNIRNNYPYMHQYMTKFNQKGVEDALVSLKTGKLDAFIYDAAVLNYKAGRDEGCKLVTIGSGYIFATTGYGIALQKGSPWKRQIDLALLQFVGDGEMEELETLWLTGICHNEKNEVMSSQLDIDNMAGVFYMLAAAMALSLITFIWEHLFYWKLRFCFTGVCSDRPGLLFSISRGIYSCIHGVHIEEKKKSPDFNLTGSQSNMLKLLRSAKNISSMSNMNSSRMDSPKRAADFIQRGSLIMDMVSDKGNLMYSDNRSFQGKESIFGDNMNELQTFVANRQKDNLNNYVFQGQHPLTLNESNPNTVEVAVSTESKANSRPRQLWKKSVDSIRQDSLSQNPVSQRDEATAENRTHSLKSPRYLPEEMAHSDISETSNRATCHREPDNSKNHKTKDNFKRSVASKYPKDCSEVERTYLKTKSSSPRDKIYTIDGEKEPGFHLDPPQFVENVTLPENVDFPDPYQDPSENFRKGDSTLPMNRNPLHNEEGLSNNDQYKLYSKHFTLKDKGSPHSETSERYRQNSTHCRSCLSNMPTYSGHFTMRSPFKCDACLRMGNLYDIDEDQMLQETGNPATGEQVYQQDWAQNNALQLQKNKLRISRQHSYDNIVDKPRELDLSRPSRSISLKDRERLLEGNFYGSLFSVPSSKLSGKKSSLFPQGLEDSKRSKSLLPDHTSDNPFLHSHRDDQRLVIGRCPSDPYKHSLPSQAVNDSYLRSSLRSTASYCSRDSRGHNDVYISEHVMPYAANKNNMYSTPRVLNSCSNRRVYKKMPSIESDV
Protocol: as §3, §4, §2

CC12CC3CC(C)(C1)CC(N)(C3)C2 [memantine, 1-amino-3,5-dimethyladamantane]
δ, fraction of the membrane field sensed by the blocker [1]: ~0.77
protection from NMDA receptor-mediated cell death [2]: 93±1%
effect on neuronal cell death induced by kainate [3]: protect neurons as well, though not as effectively as CNQX

CCC(C)C(N)CN(Cc1ccccc1)C(CNCc1ccccc1)Cc1ccc(O)cc1 (stereo not shown) [NBTA]
block of GluR1 ([4]; 1 μM): not
effect on GluR1 / AMPA receptors ([4]; even at 1 mM / mM concentration range): no effect at all
binding with coexpressed N616Q and N614G compared with N616Q alone [5]: similar
protection from NMDA receptor-mediated cell death [2]: 83±2%
use dependence of NMDA receptor block ([6]; 0.1 μM, repetitive pulses of glutamate (200 μM) and glycine (20 μM), -80 mV): progressive block; also recorded: progressive blockade
block of NMDA current ([6]; 1 μM compound, -80 mV): 70±3% and ~95%
IC50 ([6]; Hill equation fit, n=6, read-out: IC50, wild-type NMDA receptors (NR1/NR2A)): 80 nM
δ, fraction of the membrane field sensed by the blocker ([6]; Woodhull model of voltage-dependent block): 0.56
fraction of transmembrane electric field traversed to reach binding site ([6]; from δ): ~56%
voltage dependence of NMDA current reduction ([6]; voltage-ramp protocol, 200 μM L-glutamic acid plus 20 μM glycine): voltage-dependent
reduction of blocking activity by tryptophan to leucine substitution in NR2A [7]: 4.7 fold
effect of N615G mutation on binding (NMDA receptor, N615G): no effect
change of blocking activity by replacement of N616 for glutamine [8]: only slightly reduces
effect of N614G mutation on binding [9]: no effect
effect on neuronal cell death induced by kainate [3]: no effect
reduction of blocking activity by N616R substitution (NMDA receptor, NR1 N616R): 275 fold
effect of S616G mutation on binding (NMDA receptor, S616G): no effect

N#Cc1cc2c(cc1[N+](=O)[O-])=NC(=O)C(=O)N=2 [CNQX, 6-cyano-7 nitroquinoxaline-2,3-dione]
effect on neuronal cell death induced by kainate [3]: protects neurons

C[C@]12N[C@H](Cc3ccccc31)c1ccccc12 [MK-801]
protection from NMDA receptor-mediated cell death [2]: 89±1%
effect on neuronal cell death induced by kainate [3]: protect neurons as well, though not as effectively as CNQX

[Mg+2] [Mg^2+]
δ, fraction of the membrane field sensed by the blocker [1]: ~0.77

CN[C@H](CC(=O)O)C(=O)O [NMDA, N-methyl-D aspartate]
cell death induced by NMDA ([2]; no blocker): 50±3% and 45±6%
